# Reference: US20140221639A1, “RADIOLABELED NUCLEOSIDE ANALOGUE, AND PREPARATION METHOD AND USE THEREOF” (Institute of Nuclear Energy Research Atomic Energy Council, …, priority 2011, published 2014)
# Several values for one entry are separate records, joined by “and”; a condition that tells them apart may be missing. Equal values may be shown once.
# Key:
# NG4TL4 sarcoma cells = experiment: Study on incorporation in DNA; format: cell-based; conditions: 1 μCi/mL medium, 0.5-8 h
# Experimental: DNA was extracted with Genomic DNA Mini Kit (Geneaid Biotech Ltd., Taiwan). NG4TL4 cell lines were harvested and inoculated into a petri dish at 2×10^6. […] At 0.5, 1, 2, 4 and 8 h after incubation, the medium was removed, and the cells was washed two times with ice-cold PBS, and then sheared with trypsin and collected to a centrifuge tube for centrifugation (at […] for 1 min). The supernatant was removed, while 50 μL remaining buffer was left to keep the cells in suspension. 300 μL cell lysis buffer was added to the sample and uniformly mixed, the cells was cultured in a water bath at 60° C. for a sereral minutes till the solution was transparent (the sample was inversed once every 3 min). 2 μL RNAse (25 mg/mL) was added to the sample and uniformly mixed, after 5-min incubation at room temperature, 100 μL protein removal buffer was added to the sample, uniformly mixed immediately, and centrifuged for 3 min at full speed (14000 rpm) after 5-min incubation on ice. The resulting solution was transferred as a suspension to another tube, and isopropanol was added and thoroughly mixed. […] In the test, DNA purity was determined at absorption wavelengths of 260 nm and 280 nm, and the ratio of absorbances (OD260/OD280) was about 1.7.
# NG4TL4-WT tumor = experiment: Biodistribution study in tumor-bearing mice; format: in vivo, FVB/N mice; conditions: for Biodistribution Blood / Biodistribution Bone / Biodistribution Brain / Biodistribution Heart / Biodistribution Kidney / Biodistribution Large Intestine / Biodistribution Liver / Biodistribution Lung / Biodistribution Marrow / Biodistribution Muscle / Biodistribution Pancreas / Biodistribution Small Intestine / Biodistribution Spleen / Biodistribution Stomach / Biodistribution Tumor / T/B (aggregation ratio of tumor to blood) / T/M (tumor-muscle aggregation ratio): 80~90 μCi tail vein, FVB/N mice with NG4TL4-WT tumor
# Excerpt: […] Tumor and 13 other tissures (blood, heart, lung, liver, stomach, small intestine, large intestine, spleen, pancreas, kidney, bone, marrow, and muscle) were removed, rinsed, weighed, and determined for radioactivity with a γ scintilation counter. Uptake of the radioactive trancers in the tissues (counts per min) was calibrated against decay, normalizedto sample weight, and expressed as percentages of injected dosage per gram of tissue (% ID/g) and aggregation ratio of tumor to blood.
# [1] = Analysis of metabolites in blood and urine through NP-TLC; format: in vivo, FVB/N mice; conditions: NP-TLC EA/EtOH = 5/1
# Experimental: Blood samples were obtained by heart puncture, and then centrifuged at 13,000 rpm for 10 min. Then, the supernatant (about 300 μL) was placed in a 1.5 mL centrifuge tube containing equal amount of ethanol, and then centrifuged again to obtain the serum.
# [2] = mouse, in vivo, iv
# NG4TL4 cells = experiment: Cellular uptake test (ratio of cell to medium); format: cell-based; conditions: 1, 2, 4 and 8 h
# Experimental: (§1) 2×10^6 cells was inoculated in a 15 cm^2 dish containing 14 mL medium supplemented with 10% FBS. […] At specified time points (using I-131 tracer at 1, 2, 4 and 8_h), the cells on the dish was harvested by using a cell scraper. Then, a cell suspension was transferred to a 15 mL centrifuge tube and centrifuged (at 3500 rpm) for 2 min. After centrifugation, 100 μL centrifugate was collected to a preweighed counting tube and directly poured into a maintained medium. Cell pellets were frozen with dry ice, and further collected into another weighed counting tube. […] Accumulation of activity of radioactive trancer in cell in vitro is represented by a radio of cell to medium:
# (§2) Uptake experimental results of the two radioactive nucleoside analogues [^131I]IUdR and [^131I]ICdR in cells are as shown in FIGS. 4((a), (b)).
# LL/2 cells = experiment: Cellular uptake test (ratio of cell to medium); format: cell-based; conditions: 1, 2, 4 and 8 h
# Experimental: as §1, §2
# [3] = 0.25 h after ^131I-ICdR at tail vein
# [4] = 1 h after ^131I-ICdR at tail vein
# [5] = 2 h after ^131I-ICdR at tail vein
structure (smiles),measurement,setting,value
Nc1nc(=O)n([C@H]2C[C@H](O)[C@@H](CO)O2)cc1[131I] [^131I-ICdR],incorporation into cells / radioactive accumulation in DNA with time,NG4TL4 sarcoma cells,linearly incorporated
same,Biodistribution Blood,NG4TL4-WT tumor; 1 h,6.21 ± 1.11 % ID/g
same,Biodistribution Bone,NG4TL4-WT tumor; 1 h,0.96 ± 0.13 % ID/g
same,Biodistribution Brain,NG4TL4-WT tumor; 1 h,0.25 ± 0.03 % ID/g
same,Biodistribution Heart,NG4TL4-WT tumor; 1 h,1.45 + 0.14 % ID/g
same,Biodistribution Kidney,NG4TL4-WT tumor; 1 h,3.96 ± 0.39 % ID/g
same,Biodistribution Large Intestine,NG4TL4-WT tumor; 1 h,2.92 ± 0.18 % ID/g
same,Biodistribution Liver,NG4TL4-WT tumor; 1 h,2.05 ± 0.20 % ID/g
same,Biodistribution Lung,NG4TL4-WT tumor; 1 h,3.52 ± 0.48 % ID/g
same,Biodistribution Marrow,NG4TL4-WT tumor; 1 h,3.29 ± 0.08 % ID/g
same,Biodistribution Muscle,NG4TL4-WT tumor; 1 h,0.85 ± 0.04 % ID/g
same,Biodistribution Pancreas,NG4TL4-WT tumor; 1 h,2.81 ± 0.42 % ID/g
same,Biodistribution Small Intestine,NG4TL4-WT tumor; 1 h,4.79 ± 0.41 % ID/g
same,Biodistribution Spleen,NG4TL4-WT tumor; 1 h,4.03 ± 0.55 % ID/g
same,Biodistribution Stomach,NG4TL4-WT tumor; 1 h,17.07 + % ID/g
same,Biodistribution Tumor,NG4TL4-WT tumor; 1 h,3.46 ± 0.07 % ID/g
same,T/B (aggregation ratio of tumor to blood),NG4TL4-WT tumor; 1 h,0.56
same,T/M (tumor-muscle aggregation ratio),NG4TL4-WT tumor; 1 h,4.07
same,Biodistribution Blood,NG4TL4-WT tumor; 2 h,3.76 ± 0.13 % ID/g
same,Biodistribution Bone,NG4TL4-WT tumor; 2 h,0.71 ± 0.19 % ID/g
same,Biodistribution Brain,NG4TL4-WT tumor; 2 h,0.15 ± 0.03 % ID/g
same,Biodistribution Heart,NG4TL4-WT tumor; 2 h,1.14 + 0.01 % ID/g
same,Biodistribution Kidney,NG4TL4-WT tumor; 2 h,2.36 ± 0.06 % ID/g
same,Biodistribution Large Intestine,NG4TL4-WT tumor; 2 h,2.54 ± 0.33 % ID/g
same,Biodistribution Liver,NG4TL4-WT tumor; 2 h,1.43 ± 0.09 % ID/g
same,Biodistribution Lung,NG4TL4-WT tumor; 2 h,2.72 ± 0.17 % ID/g
same,Biodistribution Marrow,NG4TL4-WT tumor; 2 h,3.58 ± 1.12 % ID/g
same,Biodistribution Muscle,NG4TL4-WT tumor; 2 h,0.61 ± 0.05 % ID/g
same,Biodistribution Pancreas,NG4TL4-WT tumor; 2 h,2.08 ± 0.08 % ID/g
same,Biodistribution Small Intestine,NG4TL4-WT tumor; 2 h,4.79 ± 0.45 % ID/g
same,Biodistribution Spleen,NG4TL4-WT tumor; 2 h,3.07 ± 0.09 % ID/g
same,Biodistribution Stomach,NG4TL4-WT tumor; 2 h,14.99 ± 4.04 % ID/g
same,Biodistribution Tumor,NG4TL4-WT tumor; 2 h,3.78 ± 0.07 % ID/g
same,T/B (aggregation ratio of tumor to blood),NG4TL4-WT tumor; 2 h,1.00
same,T/M (tumor-muscle aggregation ratio),NG4TL4-WT tumor; 2 h,6.16
same,Biodistribution Blood,NG4TL4-WT tumor; 4 h,3.40 ± 0.15 % ID/g
same,Biodistribution Bone,NG4TL4-WT tumor; 4 h,0.77 ± 0.07 % ID/g
same,Biodistribution Brain,NG4TL4-WT tumor; 4 h,0.12 ± 0.02 % ID/g
same,Biodistribution Heart,NG4TL4-WT tumor; 4 h,0.84 + 0.07 % ID/g
same,Biodistribution Kidney,NG4TL4-WT tumor; 4 h,2.07 ± 0.10 % ID/g
same,Biodistribution Large Intestine,NG4TL4-WT tumor; 4 h,2.88 ± 0.21 % ID/g
same,Biodistribution Liver,NG4TL4-WT tumor; 4 h,0.85 ± 0.01 % ID/g
same,Biodistribution Lung,NG4TL4-WT tumor; 4 h,2.28 ± 0.12 % ID/g
same,Biodistribution Marrow,NG4TL4-WT tumor; 4 h,3.82 ± 0.54 % ID/g
same,Biodistribution Muscle,NG4TL4-WT tumor; 4 h,0.51 ± 0.04 % ID/g
same,Biodistribution Pancreas,NG4TL4-WT tumor; 4 h,2.09 ± 0.13 % ID/g
same,Biodistribution Small Intestine,NG4TL4-WT tumor; 4 h,5.27 ± 0.39 % ID/g
same,Biodistribution Spleen,NG4TL4-WT tumor; 4 h,2.88 ± 0.13 % ID/g
same,Biodistribution Stomach,NG4TL4-WT tumor; 4 h,17.68 ± 0.74 % ID/g
same,Biodistribution Tumor,NG4TL4-WT tumor; 4 h,4.85 ± 0.17 % ID/g
same,T/B (aggregation ratio of tumor to blood),NG4TL4-WT tumor; 4 h,1.43
same,T/M (tumor-muscle aggregation ratio),NG4TL4-WT tumor; 4 h,9.59
same,Biodistribution Blood,NG4TL4-WT tumor; 8 h,0.77 ± 0.10 % ID/g
same,Biodistribution Bone,NG4TL4-WT tumor; 8 h,0.11 ± 0.02 % ID/g
same,Biodistribution Brain,NG4TL4-WT tumor; 8 h,0.01 ± 0.00 % ID/g
same,Biodistribution Heart,NG4TL4-WT tumor; 8 h,0.19 + 0.03 % ID/g
same,Biodistribution Kidney,NG4TL4-WT tumor; 8 h,0.75 ± 0.02 % ID/g
same,Biodistribution Large Intestine,NG4TL4-WT tumor; 8 h,1.33 ± 0.06 % ID/g
same,Biodistribution Liver,NG4TL4-WT tumor; 8 h,0.38 ± 0.02 % ID/g
same,Biodistribution Lung,NG4TL4-WT tumor; 8 h,0.69 ± 0.16 % ID/g
same,Biodistribution Marrow,NG4TL4-WT tumor; 8 h,2.31 ± 0.10 % ID/g
same,Biodistribution Muscle,NG4TL4-WT tumor; 8 h,0.09 ± 0.01 % ID/g
same,Biodistribution Pancreas,NG4TL4-WT tumor; 8 h,0.38 ± 0.05 % ID/g
same,Biodistribution Small Intestine,NG4TL4-WT tumor; 8 h,2.06 ± 0.13 % ID/g
same,Biodistribution Spleen,NG4TL4-WT tumor; 8 h,2.77 ± 0.09 % ID/g
same,Biodistribution Stomach,NG4TL4-WT tumor; 8 h,2.85 ± 0.61 % ID/g
same,Biodistribution Tumor,NG4TL4-WT tumor; 8 h,2.32 ± 0.27 % ID/g
same,T/B (aggregation ratio of tumor to blood),NG4TL4-WT tumor; 8 h,3.02
same,T/M (tumor-muscle aggregation ratio),NG4TL4-WT tumor; 8 h,25.77
same,excretion of drug and metabolites,NG4TL4-WT tumor; mice,mainly through the urinary system
same,accumulation in organs (biodistribution and imaging),NG4TL4-WT tumor; tumor-bearing mice,obviously accumulated in organs that rapidly proliferates
same,^131I-ICdR (%) in Blood,[1]; [3],63.10 ± 1.17%
same,^131I-ICdR (%) in Urine,[1]; [3],56.49 ± 6.58%
same,^131I-IUdR (%) in Blood,[1]; [3],18.62 ± 2.25%
same,^131I-IUdR (%) in Urine,[1]; [3],3.19 ± 1.03%
same,^131I-I^- (%) in Blood,[1]; [3],18.28 ± 3.39%
same,^131I-I^- (%) in Urine,[1]; [3],40.32 ± 6.18%
same,^131I-compound (unknown) (%) in Blood,[1]; [3],0%
same,^131I-compound (unknown) (%) in Urine,[1]; [3],0%
same,^131I-ICdR (%) in Blood,[1]; [4],72.2% and 72.16 ± 3.66%
same,^131I-ICdR (%) in Urine,[1]; [4],71.0% and 71 + 0.26%
same,^131I-IUdR (%) in Blood,[1]; [4],0%
same,^131I-IUdR (%) in Urine,[1]; [4],0%
same,^131I-I^- (%) in Blood,[1]; [4],14.11 ± 6.15%
same,^131I-I^- (%) in Urine,[1]; [4],26.54 ± 0.34%
same,^131I-compound (unknown) (%) in Blood,[1]; [4],13.73 ± 1.38%
same,^131I-compound (unknown) (%) in Urine,[1]; [4],2.46 ± 0.08%
same,^131I-ICdR (%) in Blood,[1]; [5],67.77 ± 7.33%
same,^131I-ICdR (%) in Urine,[1]; [5],81.1 ± 8.86%
same,^131I-IUdR (%) in Blood,[1]; [5],0%
same,^131I-IUdR (%) in Urine,[1]; [5],0%
same,^131I-I^- (%) in Blood,[1]; [5],19 + 5.90%
same,^131I-I^- (%) in Urine,[1]; [5],15.37 ± 7.67%
same,^131I-compound (unknown) (%) in Blood,[1]; [5],13.23 ± 1.97%
same,^131I-compound (unknown) (%) in Urine,[1]; [5],3.53 ± 1.96%
same,CL (total body clearance),[2],3.90 ± 0.59 mL/h
same,uptake value over time,NG4TL4 cells,continuously increased with time
same,uptake value over time,LL/2 cells,continuously increased with time
